Data published in ChEMBL document CHEMBL1154147, “Antityrosinase and antioxidant effects of ent-kaurane diterpenes from leaves of Broussonetia papyrifera” (J Nat Prod, 2008).

Tests used:
[1] = test system: Radical scavenging activity
Description: Antioxidant activity assessed as DPPH free radical scavenging activity after 30 mins

Tyrosinase [2] = biological target: T1, Tyrosinase (Agaricus bisporus, UniProt O42713)
T1 sequence (O42713 whole entry): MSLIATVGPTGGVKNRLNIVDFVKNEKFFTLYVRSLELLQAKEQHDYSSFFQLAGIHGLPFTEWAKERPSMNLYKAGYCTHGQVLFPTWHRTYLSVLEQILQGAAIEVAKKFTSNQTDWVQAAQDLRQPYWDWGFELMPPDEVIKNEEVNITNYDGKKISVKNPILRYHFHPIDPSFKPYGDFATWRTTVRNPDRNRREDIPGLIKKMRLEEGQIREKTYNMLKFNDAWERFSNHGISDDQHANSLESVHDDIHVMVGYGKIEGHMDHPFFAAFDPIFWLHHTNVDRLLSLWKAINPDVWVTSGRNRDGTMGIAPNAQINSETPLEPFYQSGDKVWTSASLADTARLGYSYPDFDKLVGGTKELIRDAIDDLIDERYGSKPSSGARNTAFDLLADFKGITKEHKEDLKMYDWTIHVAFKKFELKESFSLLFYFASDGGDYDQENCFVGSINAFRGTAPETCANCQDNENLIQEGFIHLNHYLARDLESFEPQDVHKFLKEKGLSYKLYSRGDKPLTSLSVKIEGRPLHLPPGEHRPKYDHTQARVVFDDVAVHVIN
Description: (§1) Inhibition of mushroom tyrosinase after 90 mins

Tyrosinase [3] = biological target: T1, Tyrosinase; remark: listed apart in the source
Description: (§2) Inhibition of mushroom tyrosinase after 30 mins

Tyrosinase [4] = biological target: T1, Tyrosinase; remark: listed apart in the source
Description: as §2

Tyrosinase [5] = biological target: T1, Tyrosinase; remark: listed apart in the source
Description: as §1

IC50 (Tyrosinase [2]) [µM]	IC50 (Tyrosinase [3]) [µM]	SMILES	IC50 [1]	IC50 (Tyrosinase [4])	IC50 (Tyrosinase [5])
323	353	CC1(C)OC[C@]2(C[C@]34C[C@@H]2CC[C@H]3[C@]2(C)CCCC(C)(C)[C@H]2C(=O)[C@H]4O)O1 [BROUSSONETONE C]	Not Active		
		O=c1cc(-c2ccc(O)cc2)oc2c([C@@H]3O[C@H](CO)[C@@H](O)[C@H](O)[C@H]3O)c(O)cc(O)c12 [VITEXIN]	Not Active	Not Active	Not Active
317		CC1(C)CCC[C@]2(C)[C@@H]1C(=O)[C@H](O)[C@@]13C[C@H](CC[C@@H]21)[C@@](O)(CO)C3 [BROUSSONETONE B]	Not Active	Not Active	
322	336	CC1(C)CCC[C@]2(C)[C@@H]1C(=O)[C@@H](O)[C@@]13C[C@H](CC[C@@H]21)[C@@](O)(CO)C3 [BROUSSONETONE A]	Not Active		
		COc1ccc(O)c(C(C)(C)C)c1.COc1ccc(O)cc1C(C)(C)C [BUTYLATED HYDROXYANISOLE]	79.2 µM		

SMILES	IC50 (Tyrosinase [2]) [µM]	IC50 (Tyrosinase [3]) [µM]	IC50 [1]	IC50 (Tyrosinase [4])	IC50 (Tyrosinase [5])
O=c1cc(-c2ccc(O)cc2)oc2cc(O)cc(O)c12 [APIGENIN]	305	305	Not Active		
